Experimental data reported in PMC8708872, “Discovery of a Novel Template, 7-Substituted 7-Deaza-4′-Thioadenosine Derivatives as Multi-Kinase Inhibitors” (Pharmaceuticals, 2021).

Key:
[1] = system: cancer cells; assay: Antiproliferative activity against cancer cells (six lines, SRB); type: cell-based; conditions: Homo sapiens; range over the six cancer cell lines of Table 1
Protocol: Human lung cancer cells (A549), colorectal cancer (HCT116) cells, breast cancer cells (MDA-MB-231), liver cancer cells (SK-HEP-1), and prostate cancer cells (PC-3) were purchased from the American Type Culture Collection (Manassas, VA, USA). Human gastric cancer cells (SNU-638) were purchased from the Korean Cell Line Bank (Seoul, Korea). Cells were cultured in medium (Dulbecco’s modified Eagle’s medium for MDA-MB-231 and SK-HEP-1 cells; Roswell Park Memorial Institute 1640 for A549, HCT116, SNU-638, PC-3 cells) supplemented with penicillin-streptomycin and 10% fetal bovine serum at 37 °C in a humidified incubator with 5% carbon dioxide. Cells were seeded at a density of 4–7 × 10^4 cells/mL in 96-well culture plates, and then treated with indicated compounds for 72 h. At the end of the experiment, cells were fixed with 10% trichloroacetic acid (TCA) solution and subjected to sulforhodamine B (SRB) assay to determine cell proliferation. The percentage of cell proliferation was calculated with the following formula:Cell proliferation (%) = 100 × [(A treated − A zero day)/(A control − A zero day)], where A is the average absorbance. The IC50 values were calculated through non-linear regression analysis using TableCurve 2D v5.01 (Systat Software Inc., San Jose, CA, USA). All experiments were performed in triplicate and data shown are representative of two or three independent experiments.

[2] = biological target: T1, DYRK1A (Homo sapiens, UniProt Q13627); assay: Kinase inhibition profile, KINOMEscan 11-point dose response; type: binding
T1 construct: purchased Eurofins DiscoverX Corporation

[3] = biological target: T2, TRKA (NTRK1) (Homo sapiens, UniProt P04629); assay: Kinome scan; type: binding
T2 construct: purchased Eurofins DiscoverX Corporation
Protocol: (§1) The kinome scan assays were carried out at Eurofins DiscoverX Corporation. For kinome scan profiling of compound 1g, it was screened at 1μM against 96 kinases (N = 2 independent experiments). The results for binding interactions are reported as % inhibition, where higher values indicate strong affinity; see the Supporting Information, Table S1 for full kinome profile.

[4] = biological target: T3, MARK3 (Homo sapiens, UniProt P27448); assay: Kinome scan; type: binding; conditions: 1000 nM
T3 construct: purchased Eurofins DiscoverX Corporation
Protocol: as §1

[5] = biological target: T4, ADCK3 (Homo sapiens, UniProt Q8NI60); assay: Kinome scan; type: binding; conditions: 1000 nM
T4 construct: purchased Eurofins DiscoverX Corporation
Protocol: as §1

[6] = biological target: T5, CHEK1 (Homo sapiens, UniProt O14757); assay: Kinome scan; type: binding; conditions: 1000 nM
T5 construct: purchased Eurofins DiscoverX Corporation
Protocol: as §1

[7] = biological target: T6, AKT1 (Homo sapiens, UniProt P31749); assay: Kinome scan; type: binding; conditions: 1000 nM
T6 construct: purchased Eurofins DiscoverX Corporation
Protocol: as §1

[8] = biological target: T7, TYK2(JH1domain-catalytic) (Homo sapiens, UniProt P29597); assay: Kinome scan; type: binding; conditions: 1000 nM
T7 construct: TYK2(JH1domain-catalytic); purchased Eurofins DiscoverX Corporation
Protocol: as §1

[9] = biological target: T8, FGFR2 (Homo sapiens, UniProt P21802); assay: Kinome scan; type: binding; conditions: 1000 nM
T8 construct: purchased Eurofins DiscoverX Corporation
Protocol: as §1

[10] = biological target: T9, KIT(V559D,T670I) (Homo sapiens, UniProt P10721, T670I/V559D); assay: Kinome scan; type: binding; conditions: 1000 nM
T9 construct: purchased Eurofins DiscoverX Corporation
Protocol: as §1

[11] = biological target: T10, GSK3B (Homo sapiens, UniProt P49841); assay: Kinome scan; type: binding; conditions: 1000 nM
T10 construct: purchased Eurofins DiscoverX Corporation
Protocol: as §1

[12] = biological target: T11, RAF1 (Homo sapiens, UniProt P04049); assay: Kinome scan; type: binding; conditions: 1000 nM
T11 construct: purchased Eurofins DiscoverX Corporation
Protocol: as §1

[13] = biological target: T12, PIK3C2B (Homo sapiens, UniProt O00750); assay: Kinome scan; type: binding; conditions: 1000 nM
T12 construct: purchased Eurofins DiscoverX Corporation
Protocol: as §1

[14] = biological target: T13, EGFR (Homo sapiens, UniProt P00533); assay: Kinome scan; type: binding; conditions: 1000 nM
T13 construct: purchased Eurofins DiscoverX Corporation
Protocol: as §1

[15] = biological target: T14, ABL1(E255K)-phosphorylated (Homo sapiens, UniProt P00519, E255K); assay: Kinome scan; type: binding; conditions: 1000 nM
T14 construct: purchased Eurofins DiscoverX Corporation
Protocol: as §1

[16] = biological target: T15, SNARK (Homo sapiens, UniProt Q9H093); assay: Kinome scan; type: binding; conditions: 1000 nM
T15 construct: purchased Eurofins DiscoverX Corporation
Protocol: as §1

[17] = biological target: T16, LKB1 (Homo sapiens, UniProt Q15831); assay: Kinome scan; type: binding; conditions: 1000 nM
T16 construct: purchased Eurofins DiscoverX Corporation
Protocol: as §1

[18] = biological target: T17, PLK1 (Homo sapiens, UniProt P53350); assay: Kinome scan; type: binding; conditions: 1000 nM
T17 construct: purchased Eurofins DiscoverX Corporation
Protocol: as §1

[19] = biological target: T18, PIK3CG (Homo sapiens, UniProt P48736); assay: Kinome scan; type: binding; conditions: 1000 nM
T18 construct: purchased Eurofins DiscoverX Corporation
Protocol: as §1

[20] = biological target: T19, PIM1 (Homo sapiens, UniProt P11309); assay: Kinome scan; type: binding; conditions: 1000 nM
T19 construct: purchased Eurofins DiscoverX Corporation
Protocol: as §1

[21] = biological target: T20, PCTK1 (Homo sapiens, UniProt Q00536); assay: Kinome scan; type: binding; conditions: 1000 nM
T20 construct: purchased Eurofins DiscoverX Corporation
Protocol: as §1

[22] = biological target: T21, JNK1 (Homo sapiens, UniProt P45983); assay: Kinome scan; type: binding; conditions: 1000 nM
T21 construct: purchased Eurofins DiscoverX Corporation
Protocol: as §1

[23] = biological target: T22, PAK4 (Homo sapiens, UniProt O96013); assay: Kinome scan; type: binding; conditions: 1000 nM
T22 construct: purchased Eurofins DiscoverX Corporation
Protocol: as §1

[24] = biological target: T23, PAK1 (Homo sapiens, UniProt Q13153); assay: Kinome scan; type: binding; conditions: 1000 nM
T23 construct: purchased Eurofins DiscoverX Corporation
Protocol: as §1

[25] = biological target: T24, RSK2(Kin.Dom.1-N-terminal) (Homo sapiens, UniProt P51812); assay: Kinome scan; type: binding; conditions: 1000 nM
T24 construct: RSK2(Kin.Dom.1-N-terminal); purchased Eurofins DiscoverX Corporation
Protocol: as §1

[26] = biological target: T25, MAPKAPK2 (Homo sapiens, UniProt P49137); assay: Kinome scan; type: binding; conditions: 1000 nM
T25 construct: purchased Eurofins DiscoverX Corporation
Protocol: as §1

[27] = biological target: T26, VEGFR2 (Homo sapiens, UniProt P35968); assay: Kinome scan; type: binding; conditions: 1000 nM
T26 construct: purchased Eurofins DiscoverX Corporation
Protocol: as §1

[28] = biological target: T27, PLK4 (Homo sapiens, UniProt O00444); assay: Kinome scan; type: binding; conditions: 1000 nM
T27 construct: purchased Eurofins DiscoverX Corporation
Protocol: as §1

[29] = biological target: T28, DYRK1B (Homo sapiens, UniProt Q9Y463); assay: Kinome scan; type: binding
T28 construct: purchased Eurofins DiscoverX Corporation
Protocol: as §1

[30] = system: ACHN; assay: Antiproliferative activity against ACHN; type: cell-based; conditions: Homo sapiens, renal cancer cell line expressing CK1δ and DYRK2, read-out: IC50 cell growth of ACHN
[31] = biological target: T29, CYP3A4 (Homo sapiens, UniProt P08684); assay: CYP inhibition assay; type: in vitro ADME; conditions: human liver microsomes
T29 construct: Human liver microsomes (0.25 mg/mL); from tissue; host or cells: human liver microsomes

T28 sequence (Q9Y463 whole entry): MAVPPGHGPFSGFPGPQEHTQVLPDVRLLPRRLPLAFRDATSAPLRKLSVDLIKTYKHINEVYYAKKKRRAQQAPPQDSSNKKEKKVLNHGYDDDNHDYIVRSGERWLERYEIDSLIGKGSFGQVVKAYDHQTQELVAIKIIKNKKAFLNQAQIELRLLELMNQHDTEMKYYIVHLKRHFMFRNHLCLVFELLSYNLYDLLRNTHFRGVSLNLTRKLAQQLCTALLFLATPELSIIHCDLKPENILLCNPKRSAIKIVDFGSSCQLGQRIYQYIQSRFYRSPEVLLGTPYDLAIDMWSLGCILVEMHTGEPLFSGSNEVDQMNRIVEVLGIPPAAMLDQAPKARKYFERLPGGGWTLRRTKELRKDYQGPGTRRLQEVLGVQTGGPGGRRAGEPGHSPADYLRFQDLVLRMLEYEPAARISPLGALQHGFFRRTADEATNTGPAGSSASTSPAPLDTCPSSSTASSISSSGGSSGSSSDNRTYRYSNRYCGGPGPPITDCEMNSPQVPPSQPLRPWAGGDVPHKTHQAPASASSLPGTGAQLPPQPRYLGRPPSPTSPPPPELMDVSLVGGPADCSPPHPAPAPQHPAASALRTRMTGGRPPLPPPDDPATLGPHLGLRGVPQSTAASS
T2 sequence (P04629 33-796): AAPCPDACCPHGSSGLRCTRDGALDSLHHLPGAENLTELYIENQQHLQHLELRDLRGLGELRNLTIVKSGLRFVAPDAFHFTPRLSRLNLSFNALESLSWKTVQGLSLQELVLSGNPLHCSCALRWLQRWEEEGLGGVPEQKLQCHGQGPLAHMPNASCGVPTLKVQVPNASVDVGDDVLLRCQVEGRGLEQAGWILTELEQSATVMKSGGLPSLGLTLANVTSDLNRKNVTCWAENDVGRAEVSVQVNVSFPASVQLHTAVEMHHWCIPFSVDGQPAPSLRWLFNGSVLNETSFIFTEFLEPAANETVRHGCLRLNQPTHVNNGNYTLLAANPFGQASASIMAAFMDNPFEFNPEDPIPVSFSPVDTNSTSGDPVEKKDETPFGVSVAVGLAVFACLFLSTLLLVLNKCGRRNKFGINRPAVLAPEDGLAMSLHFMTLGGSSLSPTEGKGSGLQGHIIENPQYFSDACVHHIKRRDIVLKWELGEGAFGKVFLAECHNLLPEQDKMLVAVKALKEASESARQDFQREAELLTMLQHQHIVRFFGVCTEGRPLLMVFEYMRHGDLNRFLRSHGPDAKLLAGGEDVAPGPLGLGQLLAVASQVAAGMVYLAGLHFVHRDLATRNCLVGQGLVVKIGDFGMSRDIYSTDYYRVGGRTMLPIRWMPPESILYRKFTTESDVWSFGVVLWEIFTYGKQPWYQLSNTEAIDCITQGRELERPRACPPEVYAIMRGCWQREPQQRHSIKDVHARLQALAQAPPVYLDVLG
T14 sequence (P00519 whole entry E255K): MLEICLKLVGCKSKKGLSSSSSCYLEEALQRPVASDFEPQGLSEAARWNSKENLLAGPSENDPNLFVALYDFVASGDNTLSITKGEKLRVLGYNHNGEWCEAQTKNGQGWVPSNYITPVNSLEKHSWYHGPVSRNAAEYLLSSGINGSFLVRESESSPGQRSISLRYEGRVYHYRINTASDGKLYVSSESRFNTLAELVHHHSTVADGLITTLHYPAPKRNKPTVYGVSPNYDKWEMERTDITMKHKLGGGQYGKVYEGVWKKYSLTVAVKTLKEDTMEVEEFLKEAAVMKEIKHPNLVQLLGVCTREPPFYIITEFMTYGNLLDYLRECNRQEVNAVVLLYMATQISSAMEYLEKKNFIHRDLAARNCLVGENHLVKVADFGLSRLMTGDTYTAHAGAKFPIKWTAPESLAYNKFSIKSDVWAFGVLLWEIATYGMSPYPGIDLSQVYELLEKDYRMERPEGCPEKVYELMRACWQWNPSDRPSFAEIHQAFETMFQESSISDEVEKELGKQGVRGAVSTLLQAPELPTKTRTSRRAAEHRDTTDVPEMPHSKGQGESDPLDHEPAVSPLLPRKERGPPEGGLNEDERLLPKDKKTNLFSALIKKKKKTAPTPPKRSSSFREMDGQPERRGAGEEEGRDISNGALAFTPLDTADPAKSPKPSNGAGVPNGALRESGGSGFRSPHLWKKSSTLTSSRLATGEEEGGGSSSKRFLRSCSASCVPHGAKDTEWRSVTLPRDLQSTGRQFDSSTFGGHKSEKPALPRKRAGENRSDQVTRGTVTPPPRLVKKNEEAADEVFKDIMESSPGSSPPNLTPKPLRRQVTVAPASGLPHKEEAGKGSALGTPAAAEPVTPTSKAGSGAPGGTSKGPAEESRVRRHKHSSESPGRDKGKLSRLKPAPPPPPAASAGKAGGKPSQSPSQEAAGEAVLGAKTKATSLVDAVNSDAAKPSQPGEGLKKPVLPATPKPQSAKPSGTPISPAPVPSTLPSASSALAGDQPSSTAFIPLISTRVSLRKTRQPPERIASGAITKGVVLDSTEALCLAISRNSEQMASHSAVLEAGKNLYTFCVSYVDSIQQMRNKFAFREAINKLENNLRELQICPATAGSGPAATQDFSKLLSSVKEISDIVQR
T4 sequence (Q8NI60 163-647): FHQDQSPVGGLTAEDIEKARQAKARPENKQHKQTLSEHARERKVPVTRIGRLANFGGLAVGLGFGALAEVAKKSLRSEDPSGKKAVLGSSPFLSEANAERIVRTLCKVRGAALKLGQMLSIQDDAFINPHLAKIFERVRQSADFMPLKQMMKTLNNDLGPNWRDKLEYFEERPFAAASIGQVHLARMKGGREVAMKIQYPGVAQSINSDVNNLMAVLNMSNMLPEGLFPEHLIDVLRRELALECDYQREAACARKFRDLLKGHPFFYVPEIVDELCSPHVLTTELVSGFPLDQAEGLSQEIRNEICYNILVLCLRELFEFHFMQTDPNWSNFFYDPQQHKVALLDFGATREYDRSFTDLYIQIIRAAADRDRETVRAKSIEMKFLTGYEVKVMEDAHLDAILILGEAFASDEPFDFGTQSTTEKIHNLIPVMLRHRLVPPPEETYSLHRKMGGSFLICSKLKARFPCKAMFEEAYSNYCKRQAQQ
T26 sequence (P35968 20-1356): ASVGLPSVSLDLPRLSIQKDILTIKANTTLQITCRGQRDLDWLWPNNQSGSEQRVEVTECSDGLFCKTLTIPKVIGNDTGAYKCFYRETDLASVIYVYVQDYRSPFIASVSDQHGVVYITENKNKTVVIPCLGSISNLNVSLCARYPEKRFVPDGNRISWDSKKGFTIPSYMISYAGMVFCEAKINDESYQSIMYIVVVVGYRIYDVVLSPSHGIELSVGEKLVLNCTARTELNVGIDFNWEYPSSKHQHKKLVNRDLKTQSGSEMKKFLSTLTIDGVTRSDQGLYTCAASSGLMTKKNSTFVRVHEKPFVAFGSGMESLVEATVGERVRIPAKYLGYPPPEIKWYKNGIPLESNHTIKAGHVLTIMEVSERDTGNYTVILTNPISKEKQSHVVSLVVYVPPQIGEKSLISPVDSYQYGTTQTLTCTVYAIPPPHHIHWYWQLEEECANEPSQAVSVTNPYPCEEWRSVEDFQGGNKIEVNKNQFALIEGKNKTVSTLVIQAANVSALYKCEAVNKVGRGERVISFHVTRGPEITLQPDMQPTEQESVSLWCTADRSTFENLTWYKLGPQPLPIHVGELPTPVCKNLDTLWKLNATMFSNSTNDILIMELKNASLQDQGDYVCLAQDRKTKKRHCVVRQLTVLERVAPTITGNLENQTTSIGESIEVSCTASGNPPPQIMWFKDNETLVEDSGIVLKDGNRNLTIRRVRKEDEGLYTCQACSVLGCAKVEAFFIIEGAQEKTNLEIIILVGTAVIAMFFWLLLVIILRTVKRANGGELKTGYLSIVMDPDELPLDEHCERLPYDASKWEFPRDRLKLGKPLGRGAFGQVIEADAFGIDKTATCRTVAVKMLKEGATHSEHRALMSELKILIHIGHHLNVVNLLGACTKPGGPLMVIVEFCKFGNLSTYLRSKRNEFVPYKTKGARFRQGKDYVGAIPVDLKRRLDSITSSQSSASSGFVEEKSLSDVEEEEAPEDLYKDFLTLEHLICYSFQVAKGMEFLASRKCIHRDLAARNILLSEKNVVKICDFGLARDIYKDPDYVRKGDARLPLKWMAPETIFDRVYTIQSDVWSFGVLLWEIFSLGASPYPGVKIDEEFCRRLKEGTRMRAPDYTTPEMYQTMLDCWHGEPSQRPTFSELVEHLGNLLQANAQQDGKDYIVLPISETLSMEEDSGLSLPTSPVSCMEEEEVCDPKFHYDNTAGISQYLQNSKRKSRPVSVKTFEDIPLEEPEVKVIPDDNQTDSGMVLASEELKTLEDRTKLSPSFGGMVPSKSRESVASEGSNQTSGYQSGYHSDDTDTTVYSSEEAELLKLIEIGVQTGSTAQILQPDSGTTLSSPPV
T6 sequence (P31749 whole entry): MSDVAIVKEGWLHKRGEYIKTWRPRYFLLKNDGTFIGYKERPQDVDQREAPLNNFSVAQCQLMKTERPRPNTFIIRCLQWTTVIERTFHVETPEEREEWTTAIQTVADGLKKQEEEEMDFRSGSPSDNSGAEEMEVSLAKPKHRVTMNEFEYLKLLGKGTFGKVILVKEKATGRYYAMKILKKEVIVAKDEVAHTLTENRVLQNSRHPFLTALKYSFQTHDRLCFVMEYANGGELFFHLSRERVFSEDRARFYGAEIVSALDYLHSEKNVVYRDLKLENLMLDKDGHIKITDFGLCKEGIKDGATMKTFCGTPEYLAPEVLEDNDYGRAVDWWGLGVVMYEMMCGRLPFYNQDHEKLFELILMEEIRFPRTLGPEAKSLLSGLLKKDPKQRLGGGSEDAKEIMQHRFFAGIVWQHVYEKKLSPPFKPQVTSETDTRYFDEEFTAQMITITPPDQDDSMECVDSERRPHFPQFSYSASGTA

For `C#Cc1cn([C@@H]2S[C@H](CO)[C@@H](O)[C@H]2O)c2ncnc(N)c12` [Compound 1g, (2R,3R,4S,5R)-2-(4-Amino-5-ethynyl-7H-pyrrolo[2,3-d]pyrimidin-7-yl)-5-(hydroxymethyl)tetrahydrothiophene-3,4-diol], the IC50 [1] was 4 to 60 nM, the IC50 ([2]; 11-point 3-fold serial dilution) was 43 nM and the Ki ([2]; by Cheng-Prusoff equation) was 86 nM. For the same compound, the remaining binding at 1 µM ([3]; 1 μM) was under 20%, the inhibition at 1 µM ([3]; 1000 nM, TRKA (NTRK1)) was 95.1% and the inhibition at 1 µM [4] was 0%. The inhibition at 1 µM [5] was 8%, the inhibition at 1 µM [6] was 0% and the inhibition at 1 µM [7] was 7%. The inhibition at 1 µM [8] was 70%, the inhibition at 1 µM [9] was 12% and the inhibition at 1 µM [10] was 17%. It also gave an inhibition at 1 µM [11] of 0%, an inhibition at 1 µM [12] of 8% and an inhibition at 1 µM [13] of 1%. The inhibition at 1 µM [14] was 0%, the inhibition at 1 µM [15] was 18% and the inhibition at 1 µM [16] was 0%. For the same compound, the inhibition at 1 µM [17] was 2%, the inhibition at 1 µM [18] was 0% and the inhibition at 1 µM [19] was 0%. The inhibition at 1 µM [20] was 37%, the inhibition at 1 µM [21] was 0% and the inhibition at 1 µM [22] was 17%. The inhibition at 1 µM [23] was 50%, the inhibition at 1 µM [24] was 18% and the inhibition at 1 µM [25] was 55%. For the same compound, the inhibition at 1 µM [26] was 0%, the inhibition at 1 µM [27] was 30% and the inhibition at 1 µM [28] was 0%. For the same compound, the remaining binding at 1 µM ([29]; 1 μM) was under 20%, the inhibition at 1 µM ([29]; 1000 nM, DYRK1B) was 83% and the IC50 [30] was about 40 nM. For the same compound, the IC50 [31] was over 20 µM.
